{
  "source": "patent US20230075365A1",
  "about": "“HERBICIDE COMBINATIONS COMPRISING GLUFOSINATE AND SELECTED PPO INHIBITORS” (BASF SE, priority 2020, published 2023)",
  "key": {"[1]": {"system": "Velvetleaf", "experiment": "Greenhouse post emergence treatment (Acifluorfen test method), herbicidal activity against Velvetleaf", "type": "in vivo, Abutilon theophrasti", "description": "Pots with 0.8 L of volume were filled with soil (Sungro Horticulture, Agawam, Mass. 01001) to grow one plant per pot in the greenhouse until the desired developmental stage. Environmental conditions inside the greenhouse were set up for 30° C., 50% relative humidity, and 12 hr light day-1 with natural sunlight or 760 umol m-1 s-1 PAR (Photosynthetically active radiation) for cloudy days. Glufosinate applications were always performed in full sunlight to achieve maximum activity Pots with test plants grown to 3.5 to 4.5 inch (8.9 to 11.4 cm) tall were treated with the herbicidal compositions, which were obtained by diluting commercially available formulations with deionized water to desired concentration, and then sprayed using finely distributing nozzles on to the plants. The test period extended over 21 days after treatment (DAT). During this time, the plants were tended and their response to the individual treatments was evaluated.\nThe evaluation was done by calculating using the following Colby equation, wherein X was the effect in percent using acifluorfen at an application rate a, Y was the effect in percent using glufosinate at application rate b, and E was the expected effect (in %) of acifluorfen plus glufosinate at application rates a+b.\nThe value E corresponds to the effect (plant damage or injury) which is to be expected if the activity of the individual compounds is just additive. If the observed effect is higher than the value E calculated according to Colby, a synergistic effect is present.\nThe evaluation for the damage caused by the chemical compositions was carried out using a scale from 0 to 100%, compared to the untreated control plants. Here, 0 means no damage and 100 means complete destruction of the plants.\nAdjuvants of ammonium sulfate (as AMS Liquid) and non-ionic surfactant (NIS, here as Induce) at rates of 1680 g/ha and 0.25% (v/v), respectively, were added in all treatments with Acifluorfen."}, "[2]": {"system": "Kochia", "experiment": "Greenhouse post emergence treatment, visual herbicidal activity against Kochia", "type": "in vivo, Bassia scoparia", "conditions": "scale from 0 to 100", "source_text": "(§1) Synergism can be described as an interaction where the combined effect of two or more compounds is greater than the sum of the individual effects of each of the compounds. The presence of a synergistic effect in terms of percent control, between two mixing partners (X and Y) can be calculated using the Colby equation (Colby, S. R., 1967, Calculating Synergistic and Antagonistic Responses in Herbicide Combinations, Weeds, 15, 21-22):\n(§2) When the observed combined control effect is greater than the expected (calculated) combined control effect (E), then the combined effect is synergistic.\n(§3) Pots with 0.3 L of volume were filled with soil (SunGro Horticulture, Agawam, Mass. 01001) to grow one plant per pot in the greenhouse until the desired developmental stage. Environmental conditions inside the greenhouse were set up for 25° C., 75% relative humidity, and 12 h light day-1 with natural sunlight or 500 μmol m-1 s-1 PAR (photosynthetically active radiation) for cloudy days. Glufosinate applications were always performed in full sunlight to achieve maximum activity. The test period extended to 2 to 21 days after treatment. During this time, the plants were tended, and their response to the individual treatments was evaluated. The evaluation was carried out by visual control using a scale from 0 to 100. 100 means no emergence of the plants or complete destruction of at least the above-ground parts, and 0 means no damage, or normal course of growth. Data shown are the mean of three replications."}, "[3]": {"system": "Waterhemp", "experiment": "Greenhouse post emergence treatment, visual herbicidal activity against Waterhemp", "type": "in vivo, Amaranthus tuberculatus", "conditions": "scale from 0 to 100", "source_text": "as §1, §2\nas §3, with “100 means no emergence of the plants or complete destruction of at least the above-ground parts, and 0 means no damage, or normal course of growth. Data shown are the mean of three replications.” left out"}},
  "data": [
    {"smiles": "O=C(O)c1cc(Oc2ccc(C(F)(F)F)cc2Cl)ccc1[N+](=O)[O-]", "note": "[Acifluorfen]", "values": [
      {"measurement": "Herbicidal activity against Velvetleaf, solo application, % activity", "setting": "[1]; Acifluorfen 7.176 g ai/ha solo, 7 DAT", "result": 38, "unit": "%"},
      {"measurement": "Herbicidal activity against Velvetleaf, solo application, % activity", "setting": "[1]; Acifluorfen 7.176 g ai/ha solo, 14 DAT", "result": 40, "unit": "%"},
      {"measurement": "Herbicidal activity against Velvetleaf, solo application, % activity", "setting": "[1]; Acifluorfen 7.176 g ai/ha solo, 21 DAT", "result": 33, "unit": "%"}
    ]},
    {"smiles": "CP(=O)(O)CCC(N)C(=O)O", "note": "(racemic) [Glufosinate, (2RS)-2-amino-4-[hydroxy(methyl)phosphinoyl]butyric acid]", "values": [
      {"measurement": "Herbicidal activity against Velvetleaf, solo application, % activity", "setting": "[1]; Glufosinate 123 g ai/ha solo, 7 DAT", "result": 49, "unit": "%"},
      {"measurement": "Herbicidal activity against Velvetleaf, solo application, % activity", "setting": "[1]; Glufosinate 123 g ai/ha solo, 14 DAT", "result": 56, "unit": "%"},
      {"measurement": "Herbicidal activity against Velvetleaf, solo application, % activity", "setting": "[1]; Glufosinate 123 g ai/ha solo, 21 DAT", "result": 45, "unit": "%"},
      {"measurement": "Herbicidal activity against Kochia (21 DAT), Found", "setting": "[2]; Glufosinate 420 g ai/ha solo", "result": 25},
      {"measurement": "Herbicidal activity against Waterhemp (1 DAT), Found", "setting": "[3]; Glufosinate 280 g ai/ha solo", "result": 18}
    ]},
    {"smiles": "CS(=O)(=O)NC(=O)c1cc(Oc2ccc(C(F)(F)F)cc2Cl)ccc1[N+](=O)[O-]", "note": "[Fomesafen]", "values": [
      {"measurement": "Herbicidal activity against Kochia (21 DAT), Found", "setting": "[2]; Fomesafen 7.1 g ai/ha solo", "result": 25}
    ]},
    {"smiles": "CCOC(=O)C(C)OC(=O)c1cc(Oc2ccc(C(F)(F)F)cc2Cl)ccc1[N+](=O)[O-]", "note": "(centres unmarked) [Lactofen]", "values": [
      {"measurement": "Herbicidal activity against Kochia (21 DAT), Found", "setting": "[2]; Lactofen 5.2 g ai/ha solo", "result": 25},
      {"measurement": "Herbicidal activity against Waterhemp (1 DAT), Found", "setting": "[3]; Lactofen 5 g ai/ha solo", "result": 3}
    ]}
  ]
}
